Values after ≈ are worked out from the molar mass of the structure shown. Where two headings read alike, the source gives them in different places.
How the values were obtained:
[1] = system: mouse L929 cells; assay: cytotoxicity to mouse L929 cells; format: cell-based; conditions: 550 nm
Experimental: (§1) Cytotoxicity to mouse L929 cells was assayed as follows:
(§2) L929 cells were suspended to the concentration of 1.5×10^5 cells/ml in the F12 culture medium supplemented with 10% FCS. One hundred μl of the suspension was added to each well of 96-well microculture plates, and cultured at 37° C. in an atmosphere of 5% carbon dioxide for 24 hours, to which 100 μl of the test solution was added and cultured for further 48 hours. After the culture, 100 μl of the supernatant was removed and the absorbancy at 550 nm was measured in the same way as the colormetry using MTT in Experimental Example 1. The percent suppression was calculated by the following formula used as the index of cytotoxicity. [formula]

[2] = system: MOLT4; assay: cytotoxicity to tumor cell line MOLT4; format: cell-based, human
Experimental: (§3) Cytotoxicity to human tumor cell lines was examined as follows:
(§4) Cells of human cell lines, K562, MOLT4, U937, HL60, KATOIII, KB, PC-6, PC-14 and CCRF-CEM were separately suspended to the concentration of 2×10^5 cells/ml in the RPMI1640 culture medium supplemented with 20% FCS. Fifty μl of this suspension was added to each well of 96-well microculture plates to which 50 μl of the test solution had been added. After culturing at 37° C. in an atmosphere of 5% carbon dioxide for 72 hours, the absorbancy at 550 nm was measured in the same way as the colorimetry using MTT in Experimental Example 1, and the percent suppression was calculated in the same manner as in Experimental Example 14, which was used as the index of cytotoxicity.

[3] = cytotoxicity to tumor cell line MOLT4; format: cell-based, human; conditions: human, molt4 cells, read-out: Suppression
Experimental: as §3, §4

[4] = system: K562; assay: in vitro; format: cell-based, human
Experimental: as §3, §4

[5] = in vitro; format: cell-based, human; conditions: human, read-out: Suppression
Experimental: as §3, §4

[6] = system: IL2-dependent mouse cell line CTLL-2; assay: suppression of IL-2 induced 3H-thymidine incorporation of CTLL-2; format: cell-based; conditions: for inhibition at 0.1 µg/mL / inhibition at 10 µg/mL / inhibition at 0.01 µg/mL / inhibition at 1 µg/mL: Mus musculus; for inhibition at 0.1 µg/mL / inhibition at 10 µg/mL / inhibition at 0.01 µg/mL: read-out: Suppression
Experimental: IL2-dependent mouse cell line CTLL-2 cells were suspended in the RPMI1640 culture medium supplemented with 30% FCS to a concentration of 2×10^5 cells/ml. The suspension (50 μl) and 50 μl of concanavalin A-stimulated rat spleen cell culture supernatants containing IL2 were added to each well of 96-well microculture plates in which 100 μl of the test substance had been placed. After culturing at 37° C. in an atmosphere of 5% carbon dioxide for 20, 44, or 68 hours, 0.5 μCi/well of ^3 H-thymidine was added, and cultured for 4 hours under the same conditions. After termination of the culture, the cells were harvested by a cell harvester, and the radioactivity incorporated into the cells was measured by a liquid scintillation counter.

[7] = system: mouse allogenic mixed lymphocyte reaction (BALB/c responder, C57BL/6 stimulator spleen cells); assay: mouse allogenic mixed lymphocyte reaction (MLR), blastogenesis by 3H-thymidine uptake; format: cell-based
Experimental: The immunosuppressive activity of the compounds (I) and their lactones was assayed by using mouse allogenic mixed lymphocyte reaction (hereinafter sometimes abbreviated as MLR). Mouse allogenic MLR was carried out by mixed culture of the BALB/c mouse (H-2^d) spleen cells as the responder cells and the mitomycin C-treated C57BL/6 (H-2^b) spleen cells as the stimulator cells in equal amounts.
The responder cells were prepared as follows: The spleen was resected from 5- to 6-week-old male BALB/c mice, and single cell suspension of spleen cells was prepared by using the RPMI1640 culture medium (containing 60 μg/ml of kanamycin sulfate, 2 mM of L-glutamine, 10 mM of N-2-hydroxyethylpiperazine-N'-2-ethanesulfonate (HEPES) and 0.1% sodium hydrogencarbonate) to which heat-inactivated fetal calf serum (hereinaftersometimes abbreviated as FCS) had been added to 5%. After hemolytic treatment, the cell suspension was adjusted to a concentration of 10^7 cells/ml by using the RPMI1640 culture medium supplemented with 10^-4 M 2-mercaptoethanol and 20% FCS, and was used as the responder cell suspension.
The stimulator cells were prepared as follows:
The spleen was resected from 5- to 6-week-old male C57BL/6 mice, and single cell suspension of spleen cells was prepared by using the RPMI1640 culture medium. After hemolytic treatment, the cells were treated with 40 μg/ml of mitomycin C at 37° C. for 60 minutes. After washing three times, the concentration of the cell suspension was adjusted to 10^7 cells/ ml by using the RPMI1640 culture medium supplemented with 10^-4 M 2-mercaptoethanol and 20% FCS, and was used as the stimulator cell suspension.
Fifty μl of the responder cell suspension, 50μl of the stimulator cell suspension prepared by the above method, and 100 μl of the test substance were placed in 96-well microculture plates, and were cultured at 37° C. in an atmosphere of 5% carbon dioxide for 4 days.
The blastogenesis of lymphocytes was assayed by a method of ^3 H-thymidine uptake as an index. That is, after termination of the culture, 0.5 μCi/well of ^3 H-thymidine was added and cultured for 4 hours. Cells were harvested by a cell-harvester, and the radioactivity incorporated into the cells was determined by a liquid scintillation counter to obtain the index of blastogenesis of lymphocytes in the mouse allogenic MLR. The suppression of the mouse allogenic MLR was evaluated by calculating the percent suppression by the following formula. [formula]
The test substance was dissolved in methanol or suspended in a mixture of methanol and acetic acid, and then diluted with the RPMI1640 culture medium.

[8] = cytotoxicity to mouse L929 cells; format: cell-based; conditions: mouse, l929 cells, read-out: Suppression
Experimental: as §1, §2

[9] = Mus musculus, Lymphocyte, read-out: Suppression

CCCCCCC(=O)CCCCCC/C=C/CC(O)C(O)C(N)(CO)C(=O)O (centres unmarked) [Example 1]
Absorbancy ([1]; 1 μg/ml): 0.699 | Absorbancy ([1]; 10 μg/ml): 0.693 | Absorbancy ([1]; 100 μg/ml): 0.321 | Absorbancy ([2]; 0.1 μg/ml): 0.560 | Absorbancy ([2]; 1.0 μg/ml): 0.559 | Absorbancy ([2]; 10.0 μg/ml): 0.499 | Absorbancy ([2]; 100.0 μg/ml): 0.074 | cytotoxicity at 72 h ([3]; 0.1 μg/ml): 9.4% | Absorbancy ([4]; 0.1 μg/ml): 0.886 | Absorbancy ([4]; 1.0 μg/ml): 0.905 | Absorbancy ([4]; 10.0 μg/ml): 0.929 | Absorbancy ([4]; 100.0 μg/ml): 0.583 | cytotoxicity at 72 h ([5]; hl60 cells, 1.0 μg/ml): 38.2% | cytotoxicity at 72 h ([5]; pc-14 cells, 1.0 μg/ml): 7% | 3H-thymidine uptake ([6]; 24 hrs, 0.01 μg/ml): 6003 cpm | 3H-thymidine uptake ([6]; 24 hrs, 0.1 μg/ml): 3722 cpm | 3H-thymidine uptake ([6]; 24 hrs, 1 μg/ml): 3977 cpm | 3H-thymidine uptake ([6]; 24 hrs, 10 μg/ml): 1968 cpm | 3H-thymidine uptake ([6]; 48 hrs, 0.01 μg/ml): 19592 cpm | 3H-thymidine uptake ([6]; 48 hrs, 0.1 μg/ml): 7324 cpm | 3H-thymidine uptake ([6]; 48 hrs, 1 μg/ml): 4794 cpm | 3H-thymidine uptake ([6]; 48 hrs, 10 μg/ml): 1649 cpm | 3H-thymidine uptake ([6]; 72 hrs, 0.01 μg/ml, control 78515 cpm): 56688 cpm | 3H-thymidine uptake ([6]; 72 hrs, 0.1 μg/ml, control 78515 cpm): 2436 cpm | 3H-thymidine uptake ([6]; 72 hrs, 1 μg/ml, control 78515 cpm): 846 cpm | 3H-thymidine uptake ([6]; 72 hrs, 10 μg/ml, control 78515 cpm): 478 cpm | inhibition at 0.1 µg/mL ([6]; CTLL-2, 24 h): 45.5% | inhibition at 10 µg/mL ([6]; CTLL-2, 72 h): 100% | inhibition at 0.01 µg/mL ([6]; CTLL-2, 24 hrs, 0.01 μg/ml): 10.3% | inhibition at 1 µg/mL ([6]; CTLL-2, 24 hrs, 1 μg/ml): 41.5% | inhibition at 10 µg/mL ([6]; CTLL-2, 24 hrs, 10 μg/ml): 72.5% | inhibition at 0.01 µg/mL ([6]; CTLL-2, 48 hrs, 0.01 μg/ml): 22.7% | inhibition at 0.1 µg/mL ([6]; CTLL-2, 48 hrs, 0.1 μg/ml): 72.2% | inhibition at 1 µg/mL ([6]; CTLL-2, 48 hrs, 1 μg/ml): 82.4% | inhibition at 10 µg/mL ([6]; CTLL-2, 48 hrs, 10 μg/ml): 95.1% | inhibition at 0.01 µg/mL ([6]; CTLL-2, 72 hrs, 0.01 μg/ml, control 78515 cpm): 28% | inhibition at 0.1 µg/mL ([6]; CTLL-2, 72 hrs, 0.1 μg/ml, control 78515 cpm): 97.7% | inhibition at 1 µg/mL ([6]; CTLL-2, 72 hrs, 1 μg/ml, control 78515 cpm): 99.8% | 3H-thymidine uptake ([7]; 0.001 μg/ml): 14760 cpm | 3H-thymidine uptake ([7]; 0.01 μg/ml): 6436 cpm | 3H-thymidine uptake ([7]; 0.1 μg/ml): 686 cpm | 3H-thymidine uptake ([7]; 1 μg/ml): 698 cpm | IC50 ([7]; Mus musculus, Lymphocyte, read-out: 50%-inhibition concentration (IC50)): 7.1 ng/mL (≈ 0.0177 µM) | inhibition at 0.001 µg/mL [7, 9]: 0% | inhibition at 0.01 µg/mL [7, 9]: 59.2% | inhibition at 0.1 µg/mL [7, 9]: 100% | inhibition at 1 µg/mL [7, 9]: 100%

CCCCCCC(=O)CCCCCCCCCC(O)C(O)C(N)(CO)C(=O)O (centres unmarked) [Example 5]
cytotoxicity at 48 h ([8]; 0.1 μg/ml): 0% | cytotoxicity at 48 h ([8]; 1 μg/ml): 0% | cytotoxicity at 48 h ([8]; 10 μg/ml): 0% | Absorbancy ([1]; 0.1 μg/ml): 0.775 | Absorbancy ([1]; 1 μg/ml): 0.805 | Absorbancy ([1]; 10 μg/ml): 0.749 | Absorbancy ([2]; 0.1 μg/ml): 0.591 | Absorbancy ([2]; 1.0 μg/ml): 0.588 | Absorbancy ([2]; 10.0 μg/ml): 0.508 | cytotoxicity at 72 h ([3]; 0.1 μg/ml): 4.7% | cytotoxicity at 72 h ([3]; 1.0 μg/ml): 5.2% | cytotoxicity at 72 h ([3]; 10.0 μg/ml): 18.1% | Absorbancy ([4]; 0.1 μg/ml): 0.823 | Absorbancy ([4]; 1.0 μg/ml): 0.810 | Absorbancy ([4]; 10.0 μg/ml): 0.780 | cytotoxicity at 72 h ([5]; ccrf-cem cells, 0.1 μg/ml): 3.6% | cytotoxicity at 72 h ([5]; ccrf-cem cells, 1.0 μg/ml): 7.4% | cytotoxicity at 72 h ([5]; ccrf-cem cells, 10.0 μg/ml): 21.7% | cytotoxicity at 72 h ([5]; hl60 cells, 0.1 μg/ml): 20.5% | cytotoxicity at 72 h ([5]; hl60 cells, 1.0 μg/ml): 11.9% | cytotoxicity at 72 h ([5]; hl60 cells, 10.0 μg/ml): 20.9% | cytotoxicity at 72 h ([5]; k562 cells, 0.1 μg/ml): 1.6% | cytotoxicity at 72 h ([5]; k562 cells, 1.0 μg/ml): 3.1% | cytotoxicity at 72 h ([5]; k562 cells, 10.0 μg/ml): 6.7% | cytotoxicity at 72 h ([5]; kb cells, 0.1 μg/ml): 0% | cytotoxicity at 72 h ([5]; kb cells, 1.0 μg/ml): 0% | cytotoxicity at 72 h ([5]; kb cells, 10.0 μg/ml): 2.6% | cytotoxicity at 72 h ([5]; pc-14 cells, 0.1 μg/ml): 11.4% | cytotoxicity at 72 h ([5]; pc-14 cells, 1.0 μg/ml): 16.5% | cytotoxicity at 72 h ([5]; pc-14 cells, 10.0 μg/ml): 25.7% | cytotoxicity at 72 h ([5]; u937 cells, 0.1 μg/ml): 4.5% | cytotoxicity at 72 h ([5]; u937 cells, 1.0 μg/ml): 0% | 3H-thymidine uptake ([6]; 72 hrs, second run (control 30168 cpm), 0.1 μg/ml): 26108 cpm | 3H-thymidine uptake ([6]; 72 hrs, second run (control 30168 cpm), 1 μg/ml): 1532 cpm | inhibition at 0.1 µg/mL ([6]; CTLL-2, 72 hrs, second run (control 30168 cpm), 0.1 μg/ml): 13.5% | inhibition at 1 µg/mL ([6]; CTLL-2, 72 hrs, second run (control 30168 cpm), 1 μg/ml): 95.1% | 3H-thymidine uptake ([7]; 0.001 μg/ml): 22321 cpm | 3H-thymidine uptake ([7]; 0.01 μg/ml): 8182 cpm | 3H-thymidine uptake ([7]; 0.1 μg/ml): 1952 cpm | inhibition at 0.001 µg/mL ([7]; Mus musculus, Lymphocyte, 0.001 μg/ml, read-out: Suppression): 23.5% | inhibition at 0.01 µg/mL ([7]; Mus musculus, Lymphocyte, 0.01 μg/ml, read-out: Suppression): 90.6% | inhibition at 0.1 µg/mL ([7]; Mus musculus, Lymphocyte, 0.1 μg/ml, read-out: Suppression): 100%

From patent US5219884A, “Immunosuppressant” (Taito Co., Ltd., priority 1990, dated 1993)
